Source: ChEMBL document CHEMBL4049447 (J Med Chem, 2017)

Assays:
[1] = Apparent permeability across apical to basolateral side in human Caco2 cells assessed as drug recovery at 10 uM measured up to 2 hrs by ESI-LC/MS/MS analysis; type: ADME, cell-based; conditions: Caco-2, read-out: Drug recovery
[2] = Apparent permeability across basolateral to apical side in human Caco2 cells assessed as drug recovery at 10 uM measured up to 2 hrs by ESI-LC/MS/MS analysis; type: ADME, cell-based; conditions: Caco-2, read-out: Drug recovery

Nc1ccc2ccc(CCNCCc3cccc(Cl)c3)cc2n1
recovery at 2 h, 10 µM [1]: 63%
recovery at 2 h, 10 µM [2]: 103%
